PubChem BioAssay (NCI)
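Assay format: 96-well plates, 48-hour exposure. Definition used: TGI = concentration required for complete inhibition of growth.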

Legend:
Assay in all cases: inhibition of tumour cell growth, NCI panel, 48 h
[1] = test system: EKVX NSCLC
[2] = test system: BT-549 breast
[3] = test system: 786-0 renal
[4] = test system: ACHN renal
[5] = test system: A498 renal
[6] = test system: NCI-H460 lung
[7] = test system: T-47D breast
[8] = test system: HCT-116 colon
[9] = test system: MCF7 breast
[10] = test system: HCC-2998 colon
[11] = test system: CAKI-1 renal
[12] = test system: RPMI-8226 leukemia
[13] = test system: RXF 393 renal

Compound | TGI [1] | TGI [2] | TGI [3] | TGI [4] | TGI [5] | TGI [6] | TGI [7] | TGI [8] | TGI [9] | TGI [10] | TGI [11] | TGI [12] | TGI [13]
COC(=O)N/N=C(\C)C(CN1CCOCC1)C(c1ccccc1)c1cc2ccccc2oc1=O (stereo unspecified) | > 100 µM | > 100 µM | > 100 µM | > 100 µM | > 100 µM | > 100 µM | > 100 µM | > 100 µM | > 100 µM | > 100 µM | > 100 µM | 53.4 µM | > 100 µM
COc1cc(C2S/C(=C/c3ccccc3)C(=O)N2c2ccc([N+](=O)[O-])cc2)cc(OC)c1OC (stereo unspecified) | > 100 µM | > 100 µM | > 100 µM | > 100 µM | > 100 µM | > 100 µM | > 100 µM | > 100 µM | > 100 µM | > 100 µM | > 100 µM | > 100 µM | > 100 µM
CC(Oc1ccc(Cl)cc1Cl)C(=O)NN1C(=O)CSC1c1ccc(Cl)cc1 (stereo unspecified) | > 100 µM | > 100 µM | > 100 µM | > 100 µM | 80 µM | > 100 µM | > 100 µM | > 100 µM | > 100 µM | > 100 µM | 34.2 µM | > 100 µM | 83.4 µM
O=c1c2c3c(sc2nc2n1N=CN(c1ccc(Cl)cc1)C2)CCCC3 | > 100 µM | > 100 µM | > 100 µM | > 100 µM | > 100 µM | > 100 µM | > 100 µM | > 100 µM | > 100 µM | 72 µM | > 100 µM | > 100 µM | > 100 µM
C#C[C@]1(O)CC[C@H]2[C@@H]3CCC4=C/C(=N\OCCN5CCCC5)CC[C@]4(C)[C@H]3CC[C@@]21C | 38.1 µM | 43.6 µM | 24.4 µM | 47.2 µM | 50.4 µM | 40.6 µM | 60.4 µM | 28.7 µM | 21.5 µM | 34.5 µM | 39.1 µM | 13.2 µM | > 39.9 µM
CC(C)(C)C(=O)Nc1cccc(-c2ccc[nH]2)n1 | > 100 µM | > 100 µM | > 100 µM | > 100 µM | > 100 µM | > 100 µM | > 100 µM | > 100 µM | > 100 µM | > 100 µM | > 100 µM | 25.5 µM | > 100 µM
CC(C)(CCCCC(C)(C)NCC1COc2ccccc2O1)NCC1COc2ccccc2O1 (stereo unspecified) | > 10 µM | > 10 µM | > 10 µM | > 10 µM | > 10 µM | > 10 µM | > 10 µM | > 10 µM | > 10 µM | 4.73 µM | > 10 µM | > 10 µM | 8.83 µM
O=c1[nH]c(=O)n(C2CC(O)C(CO)O2)c2nc3ccc4ccccc4c3nc12 (stereo unspecified) | > 100 µM | > 100 µM | > 100 µM | > 100 µM | > 100 µM | > 100 µM | > 100 µM | > 100 µM | > 100 µM | > 100 µM | > 100 µM | 76 µM | > 100 µM
CC(C)C(Cl)CC/C(CBr)=C(\Cl)CCl (stereo unspecified) | 34 µM | 3.99 µM | 5.04 µM | 29.6 µM | 35.7 µM | 29.3 µM | 3.29 µM | 8.35 µM | 1.29 µM | 26.7 µM | 17.9 µM | 5 µM | 11.3 µM
CCO/C(O)=C(/C(=N)N1CCCC1)C(=O)Nc1ccc(Cl)cc1 | > 100 µM | > 100 µM | > 100 µM | > 100 µM | > 100 µM | > 100 µM | > 100 µM | > 100 µM | > 100 µM | > 100 µM | > 100 µM | > 100 µM | > 100 µM
CN1CCC/C1=C1\C(=O)c2cccn2C1=O | > 100 µM | > 100 µM | > 100 µM | > 100 µM | > 100 µM | > 100 µM | > 100 µM | > 100 µM | > 100 µM | > 100 µM | > 100 µM | > 100 µM | > 100 µM
COc1ccc(NC(C)=O)cc1N1C(=O)/C(=C\c2cc(OC)c(OC)c(OC)c2)S(=O)(=O)C1c1ccccc1 (stereo unspecified) | > 100 µM | > 100 µM | > 100 µM | > 100 µM | > 100 µM | > 100 µM | > 100 µM | > 100 µM | > 100 µM | > 100 µM | > 100 µM | > 100 µM | > 100 µM
C=CC(c1ccccc1)C1(O)c2cccc(O)c2C(=O)c2c(O)cccc21 (stereo unspecified) | 38.6 µM | 34.8 µM | 31.1 µM | 31.9 µM | 34.6 µM | 36.7 µM | 42.3 µM | 24.7 µM | 37.8 µM | 22.9 µM | 42.5 µM | 54.8 µM | 29.1 µM
CC(=C(C(=O)O)C(=O)O)c1cc(-c2cccs2)cc(-c2ccc(Cl)cc2)c1O | 32.2 µM | 34.4 µM | 32.2 µM | 29.4 µM | 30.8 µM | 37.3 µM | 21.3 µM | 29.1 µM | 17.9 µM | 38 µM | 40.6 µM | 15.6 µM | 29.6 µM
CNC(=S)NNC1=NCCCCN1 | > 100 µM | > 100 µM | > 100 µM | > 100 µM | > 100 µM | > 100 µM | > 100 µM | > 100 µM | > 100 µM | > 100 µM | > 100 µM | > 100 µM | > 100 µM
CC(CCC(=O)O)[C@H]1CCC2[C@H]3C(CC(=O)[C@@]21C)[C@@]1(C)CCC(O)C[C@H]1C[C@@H]3O (stereo partly specified) | > 100 µM | > 100 µM | > 100 µM | > 100 µM | > 100 µM | > 100 µM | > 100 µM | > 100 µM | > 100 µM | > 100 µM | > 100 µM | > 100 µM | > 100 µM
N#CC(C#N)=C1CCCCc2ccc([N+](=O)[O-])cc21 | > 100 µM | > 100 µM | 33 µM | > 100 µM | > 100 µM | > 100 µM | > 100 µM | 54.8 µM | > 100 µM | > 100 µM | > 100 µM | 87.5 µM | > 100 µM
CCCCc1ccc(N2C(=O)c3cccnc3S2(=O)=O)cc1 | > 100 µM | > 100 µM | > 100 µM | > 100 µM | > 100 µM | > 100 µM | > 100 µM | > 100 µM | > 100 µM | > 100 µM | > 100 µM | > 100 µM | > 100 µM
COC(=O)[C@]12CSC[C@H]1C[C@H](c1ccc(N(C)C)cc1)N2 | > 100 µM | > 100 µM | > 100 µM | > 100 µM | > 100 µM | > 100 µM | > 100 µM | > 100 µM | > 100 µM | > 100 µM | > 100 µM | > 31.6 µM | > 100 µM
NC(=O)NC(=O)c1ccc(NC(=O)CBr)cc1 | 5.41 µM | 4.7 µM | 0.919 µM | 2.91 µM | 36 µM | 9.74 µM | 4.01 µM | 2.29 µM | 4.9 µM | 25.5 µM | 1.52 µM | 3.59 µM | 3.32 µM
Cc1nc2ccc(N=NN(C)C)cc2[nH]1 | > 100 µM | > 100 µM | > 100 µM | > 100 µM | > 100 µM | > 100 µM | > 100 µM | > 100 µM | > 100 µM | > 100 µM | > 100 µM | > 100 µM | > 100 µM
COC(=O)/C(C#N)=C(\Nc1ccccc1)N1CCCCC1 | > 100 µM | > 100 µM | > 100 µM | > 100 µM | > 100 µM | > 100 µM | > 100 µM | > 100 µM | > 100 µM | > 100 µM | > 100 µM | > 100 µM | > 100 µM
